What was measured:
human TOP1 [1] = target: T1, human TOP1 (Homo sapiens, UniProt P11387); assay: TOP1 supercoiled plasmid DNA relaxation assay; format: biochemical; details: for Persistence of TOP1 inhibition over the time course: 100 μM, in words; for TOP1 Inhibition 1 min: 1 min reaction; for TOP1 Inhibition 1 min / TOP1 Inhibition 3 min / TOP1 Inhibition 5 min: compounds at 100 μM, semiquantitative; for TOP1 Inhibition 3 min: 3 min reaction; for TOP1 Inhibition 5 min: 5 min reaction
T1 construct: made in house; host or cells: Saccharomyces cerevisiae TOP1 null strain RS190, plasmid pHT143 (GAL promoter)
T1 sequence (P11387 1-765): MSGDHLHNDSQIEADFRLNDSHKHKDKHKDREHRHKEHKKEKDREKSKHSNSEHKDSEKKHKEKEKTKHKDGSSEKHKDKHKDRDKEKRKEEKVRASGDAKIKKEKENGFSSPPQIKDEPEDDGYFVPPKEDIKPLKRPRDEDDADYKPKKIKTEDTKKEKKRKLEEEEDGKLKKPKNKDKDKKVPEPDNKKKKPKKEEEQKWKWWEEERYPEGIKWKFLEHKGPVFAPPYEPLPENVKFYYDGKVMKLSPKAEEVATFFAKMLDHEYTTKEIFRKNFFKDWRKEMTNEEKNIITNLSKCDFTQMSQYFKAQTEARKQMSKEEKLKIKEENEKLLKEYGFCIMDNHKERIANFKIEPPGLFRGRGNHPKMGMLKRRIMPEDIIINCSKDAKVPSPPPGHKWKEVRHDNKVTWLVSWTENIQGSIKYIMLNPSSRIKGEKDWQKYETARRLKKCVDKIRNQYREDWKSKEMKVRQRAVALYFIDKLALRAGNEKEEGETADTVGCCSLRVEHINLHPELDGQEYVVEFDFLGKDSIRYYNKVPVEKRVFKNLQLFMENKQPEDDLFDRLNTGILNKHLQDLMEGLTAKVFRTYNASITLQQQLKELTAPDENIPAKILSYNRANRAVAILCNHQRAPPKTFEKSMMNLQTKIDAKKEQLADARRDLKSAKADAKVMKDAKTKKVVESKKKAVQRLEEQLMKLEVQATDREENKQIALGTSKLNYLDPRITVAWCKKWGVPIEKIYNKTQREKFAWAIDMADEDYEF
Excerpt: The effect of the previously prepared compounds as TOP1 inhibitors was studied. A conventional supercoiled plasmid relaxation assay was used to determine if the newly fused tetrahydroindenoquinolines 8, more aromatic indenoquinolines 9, and carbonyl derivatives 10 with phosphine oxide substituents inhibit human TOP1 activity by converting supercoiled plasmid DNA to its relaxed form. In these experiments, compound samples were mixed with the enzyme followed by the addition of a supercoiled plasmid DNA substrate, and incubation continued for increasing time intervals (1 min, 3 min, and 5 min). The reaction was terminated by the addition of SDS. DNA relaxation products were then resolved by 1% agarose electrophoresis gel and visualized by gel red staining.
The yeast Saccaromyces cerevisiae TOP1 null strain RS190, which was used for the expression of recombinant human TOP1, was a kind gift from R. Sternglanz (State University of New York, Stony Brook, NY, USA). Plasmid pHT143, for the expression of recombinant TOP1 under the control of an inducible GAL promoter, was described. The plasmids pHT143 were transformed into the yeast S. cerevisiae strain RS190. The proteins were expressed and purified by affinity chromatography essentially as described. The protein concentrations were estimated from Coomassie blue-stained SDS/polyacrylamide gels by comparison to serial dilutions of bovine serum albumin (BSA).
TOP1 activity was assayed using a DNA relaxation assay by incubating 110 ng/mL of TOP1 with 0.5 µg of negatively supercoiled pUC18 in […] of reaction buffer (20 mM Tris HCl, 0.1 mM Na2EDTA, 10 mM MgCl2, […] acetylated BSA, and 150 mM KCl, pH 7.5). The effect of the synthesized phosphorylated derivatives 8, 9, and 10 on the TOP1 activity was measured by adding different concentrations of the compounds, at different time points, as indicated in the text. The reactions were performed at 37 °C stopped by the addition of 0.5% SDS after the indicated time intervals. The samples were protease-digested and electrophoresed in a horizontal 1% agarose gel in 1xTBE (50 mM Tris, 45 mM boric acid, 1 mM EDTA) at 25V during 18h. The gel was stained with gel red (BIOTIUM, 5 mg/mL), destained with water, and photographed under UV illumination. Since all drugs were dissolved in dimethyl sulfoxide (DMSO), a […] control sample containing the same DMSO concentration as the samples incubated with the drugs was included in all experiments.

[2] = test system: MRC-5, lung fibroblast cells; assay: CCK-8 cytotoxicity assay, MRC5; format: cell-based, human; details: for IC50: Homo sapiens, MRC5 non-cancerous cells, 48h, CCK-8
Excerpt: (§1) The cytotoxic effects of the newly synthesized diphenyl(tetrahydro-5H-indeno[2,1-c]quinolin-2-yl)phosphine oxides 8, diphenyl(7H-indeno[2,1-c]quinolin-2-yl)phosphine oxides 9, and diphenyl(7-oxo-7H-indeno[2,1-c]quinolin-2-yl)phosphine oxides 10 derivatives were studied against several human cell lines: A549 (carcinomic human alveolar basal epithelial cell), SKOV3 (human ovarian carcinoma), and HEK293 (human embryonic kidney). Furthermore, in order to analyze the selective cytotoxicity facing exclusively cancerous cell lines, toxicity against a non-cancerous cell line (MRC-5, lung fibroblast cells) was also evaluated (Table 3). The cell counting kit (CCK-8) assay was employed to assess the growth inhibition and cell proliferation inhibitory activities of the compounds, which are described in Table 3 as IC50 values.
(§2) Cells were cultured according to the supplier’s instructions. Cells were seeded in 96-well plates at a density of 1.5–3 × 10^3 cells per well and incubated overnight in 0.1 mL of media supplied with 10% Fetal Bovine Serum (Lonza) in a 5% CO2 incubator at 37 °C. On day 2, drugs were added and the samples were incubated for 48h. After treatment, 10 μL of the cell counting kit-8 was added into each well for an additional 2h incubation at 37 °C. The absorbance of each well was determined by an Automatic Elisa Reader System at 450 nm wavelength (deducting 620 nm). CPT was used as the positive control.

[3] = test system: A549 (carcinomic human alveolar basal epithelial cell); assay: CCK-8 cytotoxicity assay, A549; format: cell-based; details: for IC50: A549 cells, 48h, CCK-8
Excerpt: as §1, §2

[4] = test system: SKOV3 (human ovarian carcinoma); assay: CCK-8 cytotoxicity assay, SKOV3; format: cell-based; details: SK-OV-3, SKOV3 cells, 48h
Excerpt: as §1, §2

human TOP1 [5] = target: T1, human TOP1; assay: TOP1 supercoiled plasmid DNA relaxation assay; format: biochemical; details: 30 min reaction; compounds at 100 μM; semiquantitative
[6] = test system: HEK293 (human embryonic kidney); assay: CCK-8 cytotoxicity assay, HEK293; format: cell-based; details: HEK293 cells, 48h
Excerpt: as §1, §2

Structure (SMILES)	Persistence of TOP1 inhibition over the time course (human TOP1 [1])	TOP1 Inhibition 1 min (human TOP1 [1])	TOP1 Inhibition 3 min (human TOP1 [1])	TOP1 Inhibition 5 min (human TOP1 [1])	IC50 [2] [µM]	Cytotoxicity against MRC5 (in words) ([2]; non-cancerous cell line)	IC50 ([3]; Homo sapiens, A549, 48 h) [µM]	IC50 [4] [µM]	TOP1 Inhibition 30 min (human TOP1 [5])	IC50 [6] [µM]	Cytotoxicity against A549 (in words) [3]	IC50 ([3]; listed as 9k) [µM]
CC[C@@]1(O)C(=O)OCc2c1cc1n(c2=O)Cc2cc3ccccc3nc2-1 [CPT, camptothecin, reference compound]	short-term reversible effect	++	− (no inhibition)	− (no inhibition)	0.11 ± 0.02	high toxicity	0.001	0.0055	− (no inhibition)			
O=P(c1ccccc1)(c1ccccc1)c1ccc2c(c1)C1c3ccccc3CC1C(c1cccc(F)c1)N2 (centres unmarked) [Compound 8d, Diphenyl(6-(3-fluorophenyl)-6,6a,7,11b-tetrahydro-5H-indeno[2,1-c]quinolin-2-yl)phosphine oxide]		++	++	++	> 50		43.1 ± 12.1	> 50		> 50		
O=P(c1ccccc1)(c1ccccc1)c1ccc2c(c1)C1c3ccccc3CC1C(c1ccc(F)c(F)c1)N2 (centres unmarked) [Compound 8e, Diphenyl(6-(3,4-difluorophenyl)-6,6a,7,11b-tetrahydro-5H-indeno[2,1-c]quinolin-2-yl)phosphine oxide]		++	++	++	> 50		> 50	13.2 ± 2.79		> 50		
O=P(c1ccccc1)(c1ccccc1)c1ccc2c(c1)C1c3ccccc3CC1C(c1ccc(F)cc1F)N2 (centres unmarked) [Compound 8f, Diphenyl(6-(2,4-difluorophenyl)-6,6a,7,11b-tetrahydro-5H-indeno[2,1-c]quinolin-2-yl)phosphine oxide]		+ (weak inhibition)	+ (weak inhibition)	+ (weak inhibition)	> 50		> 50	31 ± 3.17		> 50		
O=P(c1ccccc1)(c1ccccc1)c1ccc2nc(-c3ccccc3)c3c(c2c1)-c1ccccc1C3 [Compound 9a, Diphenyl(6-phenyl-7H-indeno[2,1-c]quinolin-2-yl)phosphine oxide]	more persistent inhibition	+ (weak inhibition)	++	++	> 50		> 50	> 50		> 50		
O=P(c1ccccc1)(c1ccccc1)c1ccc2nc(-c3ccc(F)cc3)c3c(c2c1)-c1ccccc1C3 [Compound 9c]		+ (weak inhibition)	+ (weak inhibition)	+ (weak inhibition)	> 50		> 50	> 50		> 50		
O=P(c1ccccc1)(c1ccccc1)c1ccc2nc(-c3cccc(F)c3)c3c(c2c1)-c1ccccc1C3 [Compound 9d, Diphenyl(6-(3-fluorophenyl)-7H-indeno[2,1-c]quinolin-2-yl)phosphine oxide]		+ (weak inhibition)	+ (weak inhibition)	+ (weak inhibition)	> 50		> 50	> 50		> 50		
O=P(c1ccccc1)(c1ccccc1)c1ccc2nc(-c3ccc(F)cc3F)c3c(c2c1)-c1ccccc1C3 [Compound 9f, Diphenyl(6-(2,4-difluorophenyl)-7H-indeno[2,1-c]quinolin-2-yl)phosphine oxide]		++	++	++	> 50		41.7 ± 7.25	> 50		> 50	slight cytotoxicity	
COc1ccc(-c2nc3ccc(P(=O)(c4ccccc4)c4ccccc4)cc3c3c2Cc2ccccc2-3)cc1 [Compound 9h, Diphenyl(6-(4-methoxyphenyl)-7H-indeno[2,1-c]quinolin-2-yl)phosphine oxide]		++	++	++								
O=P(c1ccccc1)(c1ccccc1)c1ccc2nc(-c3ccc(Br)cc3)c3c(c2c1)-c1ccccc1C3 [Compound 9j, Diphenyl(6-(4-bromophenyl)-7H-indeno[2,1-c]quinolin-2-yl)phosphine oxide]		+ (weak inhibition)	+ (weak inhibition)	+ (weak inhibition)	> 50		42.3 ± 2.09	> 50		> 50	slight cytotoxicity	> 50
O=C1c2ccccc2-c2c1c(-c1cccc(F)c1)nc1ccc(P(=O)(c3ccccc3)c3ccccc3)cc21 [Compound 10d, (6-(3-Fluorophenyl)-7-oxo-7H-indeno[2,1-c]quinolin-2-yl)diphenylphosphine oxide]		+ (weak inhibition)	+ (weak inhibition)	+ (weak inhibition)	> 50		> 50	> 50		> 50		
O=C1c2ccccc2-c2c1c(-c1ccc(F)c(F)c1)nc1ccc(P(=O)(c3ccccc3)c3ccccc3)cc21 [Compound 10e]		++	++	++	> 50		> 50	> 50		> 50		

— article PMC11678328, “Phosphine Oxide Indenoquinoline Derivatives: Synthesis and Biological Evaluation as Topoisomerase I Inhibitors and Antiproliferative Agents” (Molecules, 2024)
